Laboratory results: patent US4500533A, “2,4,5-Triaryl pyrimidines and a method of treating pain, fever, thrombosis, inflammation and arthritis” (Eli Lilly and Company, priority 1983, dated 1985)

What was measured:
[1] = system: adjuvant-induced arthritis; assay: Established adjuvant-induced arthritis test in rats (uninjected hind paw swelling); format: in vivo, male Lewis-Wistar rats; conditions: AUC of mean uninjected paw volumes
Mouse Writhing = assay: mouse writhing assay (analgesic activity); format: in vivo, Cox standard strain albino male mice; conditions: po, p.o. by gavage in corn oil-acacia emulsion (5%), three hours before i.p. acetic acid (0.60 percent), 10 minute observation starting five minutes after acetic acid, read-out: Mouse Writhing ED50 (dose required to inhibit induced writhing by fifty percent)
Excerpt: The analgesic activity of a number of compounds provided by this invention has been determined in the standard mouse writhing assay. Writhing, which is characterized by contraction of the abdominal musculature, extension of the hindlegs, and rotation of the trunk, was induced in Cox standard strain albino male mice. The mice, weighing 18-24 grams, were fasted overnight and given the test compound by gavage in a corn oil-acacia emulsion (5%) three hours before writhing was induced by the intraperitoneal administration of acetic acid (0.60 percent). Each treatment group consisted of five mice. The total number of writhes for the treatment group was determined during a 10 minute observation starting five minutes after acetic acid administration. […] Table I which follows presents typical test results obtained with certain of the compounds of this invention. The results in the mouse writhing assay are presented as the effective oral (p.o.) dose in mg./kg. of the tested compound required to inhibit induced writhing in the test animals by fifty percent (ED50).

SMILES | % Inhibition of Uninjected Paw Volume Inflammation, Days 14 through 30 ([1]; 25 mg./kg. p.o. × 15, daily days 15-29, corn oil-acacia emulsion) [%] | ED50 (Mouse Writhing) [mg/kg] | % Inhibition of Uninjected Paw Volume Inflammation, Days 14 through 30 ([1]; 10 mg./kg. p.o. × 15, daily days 15-29, corn oil-acacia emulsion) [%]
COc1ccc(-c2cnc(-c3ccc(Cl)cc3)nc2-c2ccc(OC)cc2)cc1 [Example 1, 2-(4-Chlorophenyl)-4,5-bis(4-methoxyphenyl)pyrimidine] | 74 | 0.99 | 
COc1ccc(-c2cnc(-c3ccc(F)cc3)nc2-c2ccc(OC)cc2)cc1 [Example 2, 2-(4-Fluorophenyl)-4,5-bis(4-methoxyphenyl)pyrimidine] |  | 1.48 | 70
